# Key:
# human lymphocytes [1] = test: Calcium influx assay (stop flow, Fluo-3 AM fluorescence) with activator; assay type: cell-based; details: single lymphocyte
# Source text: Calcium influx is involved in major cell functions and responses of lymphocytes. In this assay, the calcium ion influx into the lymphocytes is induced by a calcium releasing agent, calcimycin (A23187, calcium ionophore). The rise in the concentration of free intracellular calcium ions results in an increase in fluorescent signal from cells pretreated with a fluorescing agent. The kinetic results of calcium influx may be studied with the stop flow method in the microfluidic device.
# There are several steps in the study of the process of calcium influx. First, an activator, calcimycin (A23187 calcium ionophore) and the calcium ion complex must adsorb on the cell surface. Second, the complex has to diffuse through the cell membrane. Third, once inside the cytosol, dissociation between the A23187 and calcium ion has to take place. Finally, a fluorescing agent, FLUO-3 AM, complexes with the released calcium and produces emitted light that can be detected (fluorescence).
# For measurement of calcium influx, a calcium-specific fluorophore, Fluo-3 AM (Molecular Proves), was preloaded into purified human lymphocytes as acetoxymethyl (AM) ester. […]
# A fluorescence microscope equipped with a 25× objective and a CCD camera was positioned over the detection zone, point “B” in FIG. 8, allowed the observation of cells as they passed the detection zone. […]
# canine erythrocytes = test: Lysis of canine erythrocytes by SDS in the microchip; assay type: cell-based, dog
# Procedure: A phosphate buffer, 40 mM each of NA2HPO4 and KH2PO4 (BDH analytical grade) was adjusted to pH 7.4 with either NaOH or HCl and used as an isotonic buffer for canine erythrocytes. (The plasma concentrations of […] in canine plasma are 94 and 6 mM. respectively. (8,9) Assuming a monoanion as the counterion gives as osmolarity of 200 mM, equal to that of the buffer prepared.) A hypotonic solvent, deionized water, was used to prepare yeast or E. coli cell suspensions. Sodium dodecyl sulfate (SDS, Serva, analytical grade) was prepared at 3 mM (0.1 wt %) in deionized water. Other chemicals were reagent grade and were used without further purification.
# Red blood cells of a healthy dog were obtained from Heritage Medical Research Centre (Edmonton, AB, Canada). Blood samples were collected using EDTA as the anticoagulant. These were centrifuged for separation into various blood components. After removal of the plasma and buffy coat, the erythrocytes were isolated as a cell pellet. A citrate-phosphate-dextrose (CPD) solution, (9), used to store human whole blood for enhancement of the poststorage viability of red cells, (10), was adapted for handling and storing the canine cells by addition of KCl and NaCl as well. The solutions contained 2.5 mM dextrose, 1.6 mM sodium citrate, 0.28 mM citric acid, 0.15 mM Na2HPO4, 94 mM NaCl, and 6.0 mM KCl. An erythrocyte suspension of 5% hematocrit was used. The cells were washed several times with the isotonic phosphate buffer to remove the storage buffer, using a Sanyo MSE MicroCentaur centrifuge.
# The visual cell lysis experiment was performed in the COPI device (FIG. 5A). The B reservoir, which contained erythrocytes and the S reservoir, containing 3 mM SDS, were both at +150 V, while the SW reservoir was at ground. The potential at BW was floating.
# For the cell lysis experiment using PMT detection, the PCRD2 device (FIG. 5B) was used. Cells were introduced into the S reservoir to which 400 V was applied, versus ground on the SW reservoir. A 3 mM SDS solution was introduced into the B reservoir. […]
# human lymphocytes [2] = test: Calcium influx assay with lymphocyte inhibitor; assay type: cell-based
# Procedure: The microfluidic device and human lymphocytes were prepared as described in Example III.
# With reference to FIG. 8, 100 μM of verapamil, an inhibitor, was introduced into channel #1; buffer was introduced into channel #2; leukocytes were introduced into channel #3; and calcium activator A23187 was introduced into channel #4.
# The device was run as described in Example III above. Verapamil was introduced to the lymphocytes at point “A” intersection of the device (FIG. 8). The lymphocytes were incubated with verapamil for four minutes while transported through the main channel to the mixing point “B”.
# P-selectin [3] = target: T1, P-selectin (Homo sapiens, UniProt P16109); test: Cell rolling assay with undiluted human blood, P-selectin coated device; assay type: cell-based; details: heparinated whole human blood; HCRIVc device
# T1 sequence (P16109 42-830): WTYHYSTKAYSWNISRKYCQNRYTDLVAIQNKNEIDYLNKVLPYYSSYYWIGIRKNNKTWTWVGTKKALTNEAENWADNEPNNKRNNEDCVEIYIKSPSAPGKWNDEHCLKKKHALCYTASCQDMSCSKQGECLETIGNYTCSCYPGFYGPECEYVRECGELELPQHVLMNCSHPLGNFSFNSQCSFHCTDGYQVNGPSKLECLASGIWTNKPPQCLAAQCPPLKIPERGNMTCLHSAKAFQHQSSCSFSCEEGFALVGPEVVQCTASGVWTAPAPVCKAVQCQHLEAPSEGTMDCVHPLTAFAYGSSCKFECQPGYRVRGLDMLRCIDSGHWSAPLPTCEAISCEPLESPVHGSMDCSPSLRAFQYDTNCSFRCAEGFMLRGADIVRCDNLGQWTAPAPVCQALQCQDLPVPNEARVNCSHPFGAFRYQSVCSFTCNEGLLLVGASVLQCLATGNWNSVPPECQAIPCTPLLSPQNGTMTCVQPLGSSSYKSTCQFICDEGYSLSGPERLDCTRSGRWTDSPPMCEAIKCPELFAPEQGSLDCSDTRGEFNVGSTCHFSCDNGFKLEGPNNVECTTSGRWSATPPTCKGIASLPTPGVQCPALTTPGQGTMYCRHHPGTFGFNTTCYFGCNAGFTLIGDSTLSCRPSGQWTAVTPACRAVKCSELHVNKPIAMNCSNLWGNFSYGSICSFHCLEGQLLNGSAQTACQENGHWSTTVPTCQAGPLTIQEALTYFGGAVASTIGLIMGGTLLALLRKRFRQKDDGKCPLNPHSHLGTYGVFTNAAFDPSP
# Procedure: (§1) This device was previously coated either P-selectin or E-selectin as described above. 50 μl heparinated whole human blood (1 mg/ml heparin was added to the blood) was introduced into the first reservoir of the “Y” shape device shown in FIG. 12. The human blood was moved from the reservoir into the channel by a syringe pump at optimum flow rate for the device (see Table II) and the main flow channel, about 1-2 cm from intersection of “Y”, was observed under the microscope for 15 minutes.
# (§2) 50 μl of a mixture of inhibitor and heparinated blood was placed into the second reservoir and introduced into the channel for 3-10 minutes.
# E-selectin [4] = target: T2, E-selectin (Homo sapiens, UniProt P16581); test: Cell rolling assay with undiluted human blood, E-selectin coated device; assay type: cell-based; details: heparinated whole human blood; HCRIVc device
# T2 sequence (P16581 22-610): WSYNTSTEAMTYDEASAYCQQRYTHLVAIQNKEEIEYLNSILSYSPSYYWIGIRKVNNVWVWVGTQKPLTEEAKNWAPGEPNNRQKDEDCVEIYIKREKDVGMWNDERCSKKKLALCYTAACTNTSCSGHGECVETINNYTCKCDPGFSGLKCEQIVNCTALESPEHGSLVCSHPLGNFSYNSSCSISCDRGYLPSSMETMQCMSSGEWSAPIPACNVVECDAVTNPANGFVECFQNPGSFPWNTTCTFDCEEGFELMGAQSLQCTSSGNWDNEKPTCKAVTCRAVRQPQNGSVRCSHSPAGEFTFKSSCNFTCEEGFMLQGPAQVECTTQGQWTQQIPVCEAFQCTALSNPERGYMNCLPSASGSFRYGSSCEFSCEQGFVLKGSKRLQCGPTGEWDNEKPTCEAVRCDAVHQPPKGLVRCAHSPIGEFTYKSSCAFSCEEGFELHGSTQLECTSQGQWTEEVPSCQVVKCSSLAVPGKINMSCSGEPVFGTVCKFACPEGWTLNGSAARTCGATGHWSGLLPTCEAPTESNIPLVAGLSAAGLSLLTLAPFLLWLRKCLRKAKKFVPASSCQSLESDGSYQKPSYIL
# Procedure: as §1, §2
# E-selectin [5] = target: T2, E-selectin; test: Cell rolling of neutrophils on E-selectin coated microchip; assay type: cell-based; details: concentration not given
# P-selectin [6] = target: T1, P-selectin; test: Cell rolling of neutrophils on P-selectin coated microchip; assay type: cell-based; details: concentration not given
# Procedure: In preparation for cell rolling, the channels were coated with the desired selectin by methods similar to those set forth in Example VII.
# To study cell rolling, two reservoirs leading to one channel were filled with cells. The contents of both the first and second reservoir (cells only) were drawn into the channel and cell rolling was observed.
# The HCRIVa microchip was coated with 20 μg/ml P-selectin by methods similar to that described in Example VII and incubated for two hours. Isolated human neutrophils were moved through the rolling microchip with a flow rate of 10 μl/min. (approx. 800/cm shear rate=40 dynes/cm^2 shear force).
compound,measurement,setting,value
"CNc1ccc2oc(C[C@H]3O[C@@]4(CC[C@H]3C)O[C@H]([C@H](C)C(=O)c3ccc[nH]3)[C@H](C)C[C@H]4C)nc2c1C(=O)O [A23187, calcimycin]",time at the mixing point until lymphocyte showed fluorescence caused by calcium influx,human lymphocytes [1],4 s
"CCCCCCCCCCCCOS(=O)(=O)[O-].[Na+] [SDS, Sodium dodecyl sulfate]",scattered light signal from the cells,"canine erythrocytes; 3 mM SDS in deionized water, PMT 2.5 mm downstream of mixing point, PCRD2 device",signal dropped
same,total time elapsed for lysis of the marked cells (three frames),"canine erythrocytes; 3 mM SDS, COPI device, double-T region, 130 V/cm",0.3 s
same,lysis of erythrocytes (hemolysis) in a flowing stream,canine erythrocytes; anionic detergent mixed with cell stream at an intersection,lysed cells sufficiently rapidly
COc1ccc(CCN(C)CCCC(C#N)(c2ccc(OC)c(OC)c2)C(C)C)cc1OC (centres unmarked) [verapamil],activation in calcium flux,"human lymphocytes [2]; 100 μM, incubated four minutes, activator A23187",significant reduction
same,fluorescence of inhibitor treated lymphocyte after activation with A23187,"human lymphocytes [2]; 100 μM, incubated four minutes, twenty individual lymphocytes",no fluorescence
same,inhibition of calcium influx,human lymphocytes [2]; lymphocytes incubated for 30 seconds in the mixing channel,no inhibition
Fucoidine,inhibition of leukocyte rolling in whole blood in the presence of P-selectin,P-selectin [3],took a longer time to inhibit rolling
same,inhibition of leukocyte rolling in whole blood in the presence of E-selectin,E-selectin [4],took a longer time to inhibit rolling
same,inhibition of rolling of the neutrophils in the presence of E-selectin,E-selectin [5],took a longer time to inhibit rolling
same,inhibition of rolling of the neutrophils in the presence of P-selectin,P-selectin [6],took a longer time to inhibit rolling

# Source: patent US6900021B1, “Microfluidic system and methods of use” (The University of Alberta, priority 1997, dated 2005)
